Earlier results, collected in US12590059B2, “Process for the production of levetiracetam” (Suzhou BrightHope Pharmatech Co., Ltd, priority 2023, dated 2026).

Details: stated as known

CC[C@@H](C(N)=O)N1CCCC1=O [Levetiracetam]
solubility in water: about 100 g/100 mL water
